From patent publication US20220054501A1, “[…] ESTROGEN-RECEPTOR b (ER.beta) POSITIVE BREAST TUMOR” (DCIC Biopharmaceutical Limited, priority 2018, published 2022)

Legend:
[1] = tested on: ERβ positive breast cancer; test: treatment success of Anastrozol and Letrozol compared with the topical prodrug (Example 2); format: in vivo, human; conditions: for treatment success: patients, treated according to current treatment guidelines
Protocol: Studies were carried out on patients suffering from ERβ positive breast cancer.
First, the patients were treated with non-steroidal aromatase-inhibitors Anastrozol or Letrozol, the treatment was carried out according to the respective current treatment guidelines.
Then, said patients were treated with the pharmaceutical composition comprising the prodrug according to the present invention, that is, the prodrug (4-OHA) was applied topically to the affected breast.

ERβ = ERβ (Homo sapiens, UniProt Q92731); test: binding affinity towards ERβ compared with ERα; conditions: fold higher for ERβ
[2] = tested on: ER positive breast cancer; test: shrinking of breast tumor, 2.5 wt.-% 4-OHA crème (Example 1.2); format: in vivo, human; conditions: 4 ml crème with 2.5 wt.-% 4-OHA, 2 times/day, after 3-5 weeks
Protocol: 1.2 Application of 4 ml of a crème (2 times/day) comprising 2.5 wt.-% 4-OHA to a breast suffering from an ER positive breast cancer.

[3] = tested on: ERβ positive breast cancer tumors; test: shrinking of breast tumor tissue, topical prodrug (Example 1.1); format: in vivo, human; conditions: patients, tumors max 2 cm, after three weeks of treatment
Protocol: 1.1 Patients that were diagnosed (by mammography) with ERβ positive breast cancer tumors with a maximum size of 2 cm were treated with the pharmaceutical composition comprising the prodrug of the present invention: The prodrug was applied topically to the affected breast.

[4] = skin penetration on topical administration; conditions: topical administration (ointment, lotion or cream)
Excerpt: After topical administration, the compound(s) penetrate through the skin and concentrate in the fatty tissue.

MDA-MB-231 cells = test: inhibition of proliferation of MDA MB-231 cells; format: cell-based, human
Protocol: MDA-MB-231 cell line is a highly aggressive, invasive, and poorly differentiated epithelial human breast cancer cell line. It lacks estrogen receptor a (ERα) and progesterone receptor (PR) expression, as well as HER2 (human epidermal growth factor 2) amplification. MDA-MB-231 cell line is ERβ positive. It is a model cell line for triple negative breast cancer (TNBC) being ERβ positive.
Two different concentrations of MDA-MB-231 cells (1.0e3 and 2.5e3) were incubated with increasing concentrations of 4-OHT (K+; 0.5 μM; 1 μM; 5 μm; 10 μM; 20 μM). The cells were incubated for 6 days (d). Then, absorption at 492 nm was measured.

Chain of ERβ (Q92731 whole entry): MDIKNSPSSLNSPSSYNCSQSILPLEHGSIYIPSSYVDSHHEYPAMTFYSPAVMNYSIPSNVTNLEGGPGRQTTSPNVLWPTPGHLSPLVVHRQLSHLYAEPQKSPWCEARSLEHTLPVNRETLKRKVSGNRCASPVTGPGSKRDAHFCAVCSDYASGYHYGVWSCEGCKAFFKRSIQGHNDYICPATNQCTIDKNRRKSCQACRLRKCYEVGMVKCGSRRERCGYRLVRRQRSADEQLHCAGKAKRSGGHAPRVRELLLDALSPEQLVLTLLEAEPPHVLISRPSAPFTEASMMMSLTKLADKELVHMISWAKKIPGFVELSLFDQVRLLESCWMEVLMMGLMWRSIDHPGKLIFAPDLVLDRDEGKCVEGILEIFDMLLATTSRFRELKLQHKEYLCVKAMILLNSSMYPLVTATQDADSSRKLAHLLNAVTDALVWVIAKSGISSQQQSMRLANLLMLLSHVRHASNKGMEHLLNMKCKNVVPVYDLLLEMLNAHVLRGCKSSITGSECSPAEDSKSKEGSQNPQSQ

## CC(C)(C#N)c1cc(Cn2cncn2)cc(C(C)(C)C#N)c1 [Anastrozol]
[1]
  treatment success: not successful

## C[C@]12CC[C@H]3[C@@H](CCC4C(O)C(O)CC[C@@]43C)[C@@H]1CC[C@@H]2O (stereo partly drawn) [4-OHBA, 4-hydroxy-5-alpha-androstane-3-beta,17beta-diol]
ERβ
  affinity towards ERβ relative to affinity towards ERα: about 10 times

## C[C@]12CCC(=O)C(O)=C1CC[C@@H]1[C@@H]2CC[C@]2(C)C(=O)CC[C@@H]12 [4-OHA, 4-hydroxyandrost-4-ene-3,17-dione]
[2]
  size of the tumor: significantly decreased
[3]
  tumor size: reduction in tumor size
[4]
  skin penetration capabilities: excellent skin penetration capabilities
[1]; topical, after unsuccessful Anastrozol or Letrozol treatment
  patients with stabilisation of the disease over 6 months: 50%

## N#Cc1ccc(C(c2ccc(C#N)cc2)n2cncn2)cc1 [Letrozol]
[1]
  treatment success: not successful

## C[C@]12CC[C@H]3[C@@H](CCC4=C(O)C(=O)CC[C@@]43C)[C@@H]1CC[C@@H]2O [4-OHT, 4-hydroxytestosterone]
MDA-MB-231 cells; 6 d incubation, absorption at 492 nm
  end concentration from which significant inhibition of cell growth takes place: at least 5 μM/L
MDA-MB-231 cells; Homo sapiens, MDA-MB-231, 144 h, 5 μM/L 4-OHT, cell concentration 1.0e3, 6 d, read-out: inhibition of cell growth
  inhibition at 5 µM: ~50%
MDA-MB-231 cells; Homo sapiens, MDA-MB-231, 144 h, 20 μM/L 4-OHT, 6 d, read-out: inhibition of cell growth
  inhibition at 20 µM: 75 to 80%
